From US10265329B2, “Altering steroid metabolism for treatment of steroid-dependent disease” (THE CLEVELAND CLINIC FOUNDATION, priority 2015, dated 2019)
Substitutions are numbered along the chain they refer to.

Key:
wild-type AR (LAPC4) = target: T1, wild-type AR (LAPC4) (Homo sapiens, UniProt P10275); assay: AR competition assay with [3H]-R1881 in LAPC4 cells; type: binding; settings: for affinity for wild-type AR: [3H]-R1881, 30 min
T1 construct: endogenous in cells; host or cells: LAPC4
T1 sequence (P10275 1-920): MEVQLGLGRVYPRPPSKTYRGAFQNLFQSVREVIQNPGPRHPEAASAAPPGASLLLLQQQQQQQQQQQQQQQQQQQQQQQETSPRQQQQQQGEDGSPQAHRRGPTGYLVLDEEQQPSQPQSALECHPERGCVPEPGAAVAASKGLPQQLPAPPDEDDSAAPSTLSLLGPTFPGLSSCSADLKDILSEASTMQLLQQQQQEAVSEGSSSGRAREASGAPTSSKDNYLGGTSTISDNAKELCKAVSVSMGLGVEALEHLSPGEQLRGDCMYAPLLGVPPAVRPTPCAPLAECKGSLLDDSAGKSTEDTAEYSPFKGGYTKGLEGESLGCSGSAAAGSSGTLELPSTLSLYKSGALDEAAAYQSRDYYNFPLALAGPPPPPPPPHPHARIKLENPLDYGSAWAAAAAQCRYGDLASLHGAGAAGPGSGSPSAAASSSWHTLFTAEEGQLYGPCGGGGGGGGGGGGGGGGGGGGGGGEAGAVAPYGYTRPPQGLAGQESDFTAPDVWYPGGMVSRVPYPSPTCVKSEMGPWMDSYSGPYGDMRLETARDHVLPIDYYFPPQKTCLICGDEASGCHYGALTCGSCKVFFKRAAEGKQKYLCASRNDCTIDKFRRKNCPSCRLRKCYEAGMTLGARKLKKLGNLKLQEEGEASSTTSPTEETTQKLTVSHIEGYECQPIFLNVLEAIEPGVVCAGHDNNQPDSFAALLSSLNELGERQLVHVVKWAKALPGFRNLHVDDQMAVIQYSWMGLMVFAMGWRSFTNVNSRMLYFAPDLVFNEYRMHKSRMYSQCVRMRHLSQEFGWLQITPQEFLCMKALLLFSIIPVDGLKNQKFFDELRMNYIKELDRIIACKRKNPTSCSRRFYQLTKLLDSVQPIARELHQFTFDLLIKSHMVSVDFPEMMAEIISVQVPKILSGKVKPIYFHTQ
Experimental: (§1) Cells were cultured in serum-free medium for 48 h and then treated with [^3H]-R1881 and the indicated concentrations of D4A, Abi, enzalutamide, R1881 or bicalutamide for 30 min. Cells were washed with 1×PBS 4 times and 0.9% NaCl solution twice before lysis with RIPA buffer.
(§2) Cells were starved with phenol red-free and serum free-medium for at least 48 h and then treated with [^3H]-R1881 and the indicated concentrations of drugs for 30 min. Cells were washed thoroughly with PBS and then lysed with […].

mutant AR (LNCaP) = target: T2, mutant AR (LNCaP) (Homo sapiens, UniProt P10275, T878A); assay: AR competition assay with [3H]-R1881 in LNCaP cells; type: binding; settings: for affinity for T877A mutant AR: [3H]-R1881, 30 min
T2 construct: endogenous in cells; host or cells: LNCaP
T2 sequence (P10275 1-920 T878A): T1 sequence (P10275 1-920) with T878A
Experimental: as §1, §2

Compound	affinity for wild-type AR (wild-type AR (LAPC4))	affinity for T877A mutant AR (mutant AR (LNCaP))	IC50 (wild-type AR (LAPC4); competition with 0.1 nM [3H]-R1881, read-out: IC50, affinity for wild-type AR) [nM]	IC50 (mutant AR (LNCaP); competition with 0.1 nM [3H]-R1881, read-out: IC50, affinity for mutant AR) [nM]
C[C@]12CC[C@@H](O)C[C@@H]1CC[C@@H]1[C@@H]2CC[C@]2(C)C(c3cccnc3)=CC[C@@H]12 [Compound 3α-OH-5α-Abi, 17-(3-pyridyl)-5α-androsta-16-ene-3α-ol]	lower	lower		
C[C@]12CCC(=O)C[C@@H]1CC[C@@H]1[C@@H]2CC[C@]2(C)C(c3cccnc3)=CC[C@@H]12 [Compound 5α-Abi, 17-(3-pyridyl)-5α-androsta-16-ene-3-one]	comparable to that of D4A	comparable to that of D4A		
C[C@]12CCC(=O)C=C1CC[C@@H]1[C@@H]2CC[C@]2(C)C(c3cccnc3)=CC[C@@H]12 [Compound D4A, 17-(3-Pyridyl)androsta-4,16-dien-3-one]			7.9	5.3
